# In ChEMBL document CHEMBL1126503, “Syntheis of TRP-VAL non-cleavable dipeptide transition state isosteres” (Bioorg Med Chem Lett, 1993):
# Activity calls are given as the source filed them. The calls are words filed in the database; no cut-off is given here.
# Test system: Endothelial cell
# Assay: Tested for inhibition of Endothelin-converting enzyme derived from bovine endothelial cell; NA means inactive uM
# Assay type: cell-based
row,Compound,inhibition
1,CCOC(=O)/C(=C/C(=O)[C@H](Cc1c[nH]c2ccccc12)NC(=O)OC(C)(C)C)C(C)C,inactive
2,CC(C)/C(=C/C(=O)[C@H](Cc1c[nH]c2ccccc12)NC(=O)OC(C)(C)C)C(=O)O,inactive
3,COC(=O)[C@@H](NC(=O)[C@H](CC(N)=O)NC(=O)/C(=C\C(=O)[C@H](Cc1c[nH]c2ccccc12)NC(=O)OC(C)(C)C)C(C)C)C(C)C(=O)C(C)(C)C (stereo partly drawn),inactive
